According to PubChem BioAssay (NCI):
Where “and” joins values, the source holds several entries; their conditions need not be identical. Equal values may be shown once.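 Interpolation was linear, between the two tested concentrations surrounding the appropriate level; five concentrations were tested over 48 hours in 96-well plates. At the GI50, growth is halved. At the TGI there is no net growth.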

What was measured:
Assay in all cases: NCI anticancer screen, dose series, 48 h
EKVX NSCLC = test system: EKVX NSCLC
HCC-2998 colon = test system: HCC-2998 colon
HCT-116 colon = test system: HCT-116 colon
HOP-92 NSCLC = test system: HOP-92 NSCLC
IGROV1 ovarian = test system: IGROV1 ovarian
LOX IMVI melanoma = test system: LOX IMVI melanoma
M14 melanoma = test system: M14 melanoma
SK-MEL-28 melanoma = test system: SK-MEL-28 melanoma
SN12C renal = test system: SN12C renal
TK-10 renal = test system: TK-10 renal

| SMILES | TGI (EKVX NSCLC) | TGI (HCC-2998 colon) | TGI (HCT-116 colon) | TGI (HOP-92 NSCLC) | TGI (IGROV1 ovarian) | TGI (LOX IMVI melanoma) | TGI (M14 melanoma) | TGI (SK-MEL-28 melanoma) | TGI (SN12C renal) | TGI (TK-10 renal) | GI50 (EKVX NSCLC) | GI50 (HCC-2998 colon) | GI50 (HCT-116 colon) | GI50 (HOP-92 NSCLC) | GI50 (IGROV1 ovarian) | GI50 (LOX IMVI melanoma) | GI50 (M14 melanoma) | GI50 (SK-MEL-28 melanoma) | GI50 (SN12C renal) | GI50 (TK-10 renal) |
| --- | --- | --- | --- | --- | --- | --- | --- | --- | --- | --- | --- | --- | --- | --- | --- | --- | --- | --- | --- | --- |
| COc1ccc(-c2cc(-c3ccco3)c(C#N)c(=O)n2C2OC(OC(=O)c3ccccc3)C(OC(=O)c3ccccc3)C2OC(=O)c2ccccc2)cc1 (stereo unspecified) | > 100 µM | > 100 µM | > 100 µM | 54.5 µM | > 100 µM | > 100 µM | > 100 µM | > 100 µM | > 100 µM | 54.7 µM | – | – | – | – | – | – | – | – | – | – |
| Cc1cc(C)c2nc(Nc3nc(C)c(C)c(=O)[nH]3)nc(C)c2c1 | 10.9 µM | 19.6 µM | 12.9 µM | 9.11 µM | 12.8 µM | 5.38 µM | 8.79 µM | 7.64 µM | 12 µM | 17.9 µM | 2.58 µM | 3.81 µM | 2.94 µM | 2.48 µM | 2.85 µM | 1.92 µM | 2.58 µM | 2.35 µM | 2.27 µM | 3.05 µM |
| N#CC1=C(N)Oc2c(sc3c(F)cccc23)C1c1ccc(Cl)cc1 (stereo unspecified) | 21.7 µM | 22.6 µM | 13.9 µM | 19.2 µM | 17.1 µM | 11.8 µM | 6.57 µM | 28.2 µM | 16.2 µM | 24.3 µM | 4 µM | 7.25 µM | 3.7 µM | 3.71 µM | 3.43 µM | 3.06 µM | 2.19 µM | 5.86 µM | 4.33 µM | 8.38 µM |
| O=C1C=Cc2cc3ccccc3c3cccc1c23 | 8.92 µM | 3.18 µM | > 100 µM | 6.29 µM | > 100 µM | 12.2 µM | > 100 µM | > 100 µM | 11.3 µM | 42.3 µM | 2.55 µM | 0.413 µM | 3.16 µM | 1.11 µM | 8.42 µM | 2.87 µM | 15.7 µM | 10.5 µM | 2.71 µM | 9.55 µM |
| COc1cc2c(cc1OC)[C@@H]1[C@H](C2=O)c2ccc([N+](=O)[O-])cc2C(=O)N1CCCBr | > 100 µM | > 100 µM | 0.0133 µM | > 100 µM | 1.93 µM | 0.81 µM | 0.0139 µM | > 100 µM | 0.934 µM | 41.1 µM | 1.78 µM | 2.66 µM | < 0.01 µM | 3.15 µM | < 0.01 µM | 0.2 µM | < 0.01 µM | 2.54 µM | 0.277 µM | 1.28 µM |
| O=C(CC1Sc2ccccc2NC1=O)Nc1ccc([N+](=O)[O-])cc1[N+](=O)[O-] (stereo unspecified) | 69.2 µM | > 100 µM | 29.8 µM | 31.3 µM | 39.1 µM | 30.1 µM | 31.2 µM | 31.8 µM | 29.7 µM | > 100 µM | – | – | – | – | – | – | – | – | – | – |
| N#CC1(Cc2ccccc2Cl)c2ccccc2C=CN1C(=O)c1ccccc1 (stereo unspecified) | > 100 µM | > 100 µM | > 100 µM | > 100 µM | > 100 µM | > 100 µM | > 100 µM | > 100 µM | > 100 µM | > 100 µM | – | – | – | – | – | – | – | – | – | – |
| NS(=O)(=O)OC[C@H]1O[C@@H](n2cnc3c(N[C@H]4CCc5ccccc54)ncnc32)[C@H](O)[C@@H]1O | 9.07 µM | 0.331 µM | 0.114 µM | 0.799 µM | 1 µM | 0.0572 µM | 2.35 µM | 0.276 µM | 1.3 µM | 3.24 µM | 0.349 µM | 0.157 µM | 0.0213 µM | 0.475 µM | 0.174 µM | 0.0209 µM | 0.226 µM | 0.047 µM | 0.231 µM | 0.608 µM |
| COC(=O)c1nc(N)[nH]c(=O)c1-c1ccc(Cl)cc1 | > 100 µM | > 100 µM | > 100 µM | > 100 µM | > 100 µM | > 100 µM | > 100 µM | > 100 µM | > 100 µM | > 100 µM | – | – | – | – | – | – | – | – | – | – |
| O=C1CCc2cc([N+](=O)[O-])ccc2O1 | > 100 µM | > 100 µM | > 100 µM | > 100 µM | > 100 µM | > 100 µM | > 100 µM | > 100 µM | > 100 µM | > 100 µM | – | – | – | – | – | – | – | – | – | – |
| COC(=O)CC[C@@H](NC(=O)C(C)NC(=O)COC1C(O)C(COC(=O)CCCCCCCCCCNC(=O)c2ccc([N+](=O)[O-])c3[nH]c4cc(Br)ccc4c(=O)c23)OC(OCc2ccccc2)C1NC(C)=O)C(N)=O (stereo partly specified) | > 100 µM | 93.2 µM | > 100 µM | > 100 µM | 49.8 µM | > 100 µM | > 100 µM | > 100 µM | > 100 µM | > 100 µM | – | – | – | – | – | – | – | – | – | – |
| COc1ccc(CNCCN2C(=O)c3ccc4c5c(ccc(c35)C2=O)C(=O)N(CCNCc2ccc(OC)cc2)C4=O)cc1 | 1.73 µM | 1.05 µM | 0.688 µM | 2.68 µM | 0.67 µM | 0.583 µM | 0.348 µM | 2.56 µM | 0.323 µM | 0.754 µM | 0.455 µM | 0.304 µM | 0.147 µM | 0.788 µM | 0.204 µM | 0.195 µM | 0.169 µM | 1.21 µM | 0.159 µM | 0.201 µM |
| CN1CCN(c2nc(C3=C(c4c[nH]c5ccccc45)C(=O)NC3=O)c3ccccc3n2)CC1 | 65 µM | 22.6 µM and 36.7 µM | 31.9 µM and 37.9 µM | 65 µM and 17.4 µM | 65 µM and 41.3 µM | 24.5 µM and 36.4 µM | 20.5 µM and 37.6 µM | 20.8 µM and 32.8 µM | 28.5 µM and 35.5 µM | 65 µM and 49 µM | 20.4 µM | 11.2 µM and 19 µM | 10.3 µM and 9.78 µM | 30.5 µM and 4.23 µM | 21.4 µM and 21 µM | 13.1 µM and 17.3 µM | 10.5 µM and 17 µM | 11.2 µM and 17.7 µM | 9.03 µM and 12.9 µM | 27.9 µM and 17.5 µM |
| CC1=NN(C(=O)CC(=O)Nc2ccccc2)C(=O)C1N=Nc1ccc(S(N)(=O)=O)cc1 (stereo unspecified) | > 100 µM | > 100 µM | > 100 µM | > 100 µM | > 100 µM | > 100 µM | > 100 µM | > 100 µM | > 100 µM | > 100 µM | – | – | – | – | – | – | – | – | – | – |
| Cc1cccc2c1NC(c1c(C)[nH]c3ccccc13)C2 (stereo unspecified) | > 100 µM | > 100 µM | > 100 µM | 17.2 µM | > 100 µM | > 100 µM | > 100 µM | > 100 µM | > 100 µM | > 100 µM | – | – | – | – | – | – | – | – | – | – |
| OCCOCn1nc(-c2ccccc2)nc1-c1cnccn1 | > 100 µM | > 100 µM | > 100 µM | > 100 µM | > 100 µM | > 100 µM | > 100 µM | > 100 µM | > 100 µM | > 100 µM | – | – | – | – | – | – | – | – | – | – |
| COc1cc(C2C3=C(COC3=O)N(CCO)c3cc4c(cc32)OCCO4)cc(OC)c1O (stereo unspecified) | > 50 µM | 19 µM | > 50 µM | > 50 µM | > 16.5 µM | > 50 µM | > 21 µM | > 50 µM | > 50 µM | > 50 µM | 3.5 µM | 2.04 µM | 2.15 µM | > 50 µM | 1.17 µM | 2.49 µM | 1.43 µM | 1.15 µM | 4.1 µM | 6.61 µM |
| CC([C@H]1CCC2C3CCC4C(=O)C(NC=O)=CC[C@]4(C)C3CC[C@@]21C)N(C)C (stereo partly specified) | 50.7 µM | 14.7 µM | 3.95 µM | 12.7 µM | – | 4.02 µM | 4.39 µM | 3.55 µM | 14.9 µM | 29.4 µM | 3.01 µM | 4.09 µM | 1.42 µM | 4.64 µM | 2.29 µM | 1.78 µM | 2.08 µM | 1.86 µM | 2.92 µM | 9.71 µM |
| Nc1ccc(Cl)cc1.Nc1ccc(Cl)cc1.Nc1ccc(Cl)cc1.O=C([O-])C(=O)[O-].O=C([O-])C(=O)[O-].[H+].[Ru+5] | > 100 µM | – | > 100 µM | > 100 µM | > 100 µM | > 100 µM | > 100 µM | > 100 µM | > 100 µM | > 100 µM | 8.15 µM | 0.439 µM | – | > 100 µM | > 100 µM | > 100 µM | > 100 µM | – | > 24.5 µM | 3.56 µM |
